US20230348578A1, “CONFORMATION-SPECIFIC ANTIBODIES THAT BIND TAU PROTEIN AND USES THEREOF” (Beth Israel Deaconess Medical Center, Inc., priority 2020, published 2023)
Where a SMILES comes first, the peptide text is derived from it. The star is where a group is joined. Cbz = O=C(OCc1ccccc1)*; CH2F = FC*

Tested on: primary neurons
Assay: Death of primary neurons with purified cis P-tau
Type: cell-based

## COC(=O)C[C@H](NC(=O)[C@H](C)NC(=O)[C@@H](NC(=O)OCc1ccccc1)C(C)C)C(=O)CF [Z-VAD-FMK] (Cbz-Val-Ala-Asp(OMe)-CH2F)
  death in primary neurons induced by purified cis P-tau: blocked
